Test results taken from US12559474B2, “Triazine derivatives having virus replication inhibitory activity and pharmaceutical composition comprising the same” (priority 2021, dated 2026).
Like-named read-outs stand apart in the source and are kept apart here.

How the values were obtained:
SARS-CoV-2 3CL protease = SARS-CoV-2 3CL protease (Severe acute respiratory syndrome coronavirus 2, UniProt P0DTD1); experiment: biochemical
SARS-CoV-2 = experiment: microbe, parasite or virus in culture; assay type: cell-based; details: for coronavirus replication inhibitory activity: at concentrations up to 50 μM, tested as in Test Example 1 (Reference Example 1)

Structure (SMILES)	IC50 (SARS-CoV-2 3CL protease; IC50)	further results
COc1ccc(Nc2nc(=O)n(Cc3cc4ccncc4[nH]c3=O)c(=O)n2Cc2cc(F)c(F)c(F)c2)cc1 [Compound I-0080]	< 100 nM	
COCCn1c(C)nc2cc(Cl)c(Nc3nc(=O)n(Cc4ccc[nH]c4=O)c(=O)n3Cc3cc(F)c(F)c(F)c3)cc21 [Compound I-0443]	< 100 nM	
Cc1cncc(-n2c(=O)nc(Nc3cc4cn(CCN)nc4cc3Cl)n(Cc3cc(Cl)ccc3Cl)c2=O)c1 [II-0611]	< 100 nM	
CC(=O)Nc1nc2cc(Cl)c(Nc3nc(=O)n(Cc4ncn(C)n4)c(=O)n3Cc3ccc(F)c(C#N)c3)cc2s1 [II-0083]	< 100 nM	
Cn1cnc(Cn2c(=O)nc(Nc3cc4cn(C)nc4cc3Cl)n(Cc3cc(Cl)cc(F)c3F)c2=O)n1 [II-0641]	< 100 nM	
CNc1nc2ccc(Nc3nc(=O)n(-c4cncc(Cl)c4)c(=O)n3Cc3ccc(F)c(C#N)c3)cc2s1 [II-0399]		EC50 (SARS-CoV-2; Severe acute respiratory syndrome coronavirus 2, VeroE6/TMPRSS2, 72 h, 50% SARS-CoV-2 infected cell death inhibitory concentration, VeroE6/TMPRSS2 cells, 3 days culture, class symbols): < 1000 nM
CCOC(=O)c1cc(F)c(F)cc1Cn1c(Nc2cc3cn(C)nc3cc2Cl)nc(=O)n(Cc2ncn(C)n2)c1=O [II-0636]	< 100 nM	
CS(=O)(=O)CCCn1cc2cc(Nc3nc(=O)n(Cc4ccc[nH]c4=O)c(=O)n3Cc3cc(F)c(F)c(F)c3)c(Cl)cc2n1 [Compound I-0287]	< 100 nM	
CN(C)C(=O)CCn1cc2cc(Nc3nc(=O)n(Cc4ncn(C)n4)c(=O)n3Cc3cc(F)c(F)c(Cl)c3)c(Cl)cc2n1 [II-0561]	< 100 nM	
O=C(O)c1ccc(Oc2ccc(/N=c3\[nH]c(=O)n(-c4ccon4)c(=O)n3Cc3ccc(Cl)cc3)cc2)nc1 [Compound I-580, reference compound]		coronavirus replication inhibitory activity (SARS-CoV-2): did not show coronavirus replication inhibitory activity
COc1ccc(Nc2nc(=O)n(Cc3cc(C(=O)NCc4ccn(C)n4)c[nH]c3=O)c(=O)n2Cc2cc(F)c(F)c(F)c2)cc1 [II-0325]	< 100 nM	
Cn1cnc(Cn2c(=O)nc(Nc3cc4cn(CC(=O)N5CCC5)nc4cc3Cl)n(Cc3cc(Cl)c(F)cc3F)c2=O)n1 [II-0149]	< 100 nM	
Cn1cnc(Cn2c(=O)nc(Nc3cc4cn(C)nc4cc3Cl)n(Cc3cc(Cl)cc(F)c3Cl)c2=O)n1 [II-0640]	< 100 nM	
Cn1cnc(Cn2c(=O)nc(NC34CC(Nc5ncc(C(F)(F)F)cn5)(C3)C4)n(Cc3cc(F)c(F)c(F)c3)c2=O)n1 [II-0470]	< 100 nM	
CN(C)CCn1cc2cc(Nc3nc(=O)n(Cc4ccc[nH]c4=O)c(=O)n3Cc3cc(F)c(F)c(F)c3)c(Cl)cc2n1 [Compound I-0427]	< 100 nM	
Cn1cnc(Cn2c(=O)nc(Nc3cc4cn(CC(=O)N5CCOCC5)nc4cc3Cl)n(Cc3cc(F)c(F)c(Cl)c3)c2=O)n1 [II-0139]	< 100 nM	
Cc1cnc(NC23CC(Nc4nc(=O)n(Cc5ccc[nH]c5=O)c(=O)n4Cc4cc(F)c(F)c(F)c4)(C2)C3)nc1 [II-0444]	< 100 nM	
Cc1ccc(Cn2c(=O)nc(Nc3cccc(C(F)(F)F)c3)n(Cc3ccc(Cl)c(Cl)c3)c2=O)cc1 [Compound I-066, reference compound]		coronavirus replication inhibitory activity (SARS-CoV-2): did not show coronavirus replication inhibitory activity
CNC(=O)c1cccc(C2(Nc3nc(=O)n(Cc4ccc[nH]c4=O)c(=O)n3Cc3cc(F)c(F)c(F)c3)CCC2)c1 [II-0481]	100 nM	
Cc1cncc(-n2c(=O)nc(Nc3cc(C)c(N=S4(=O)CCCC4)cc3Cl)n(Cc3cc(Cl)ccc3C)c2=O)c1 [II-0623]	< 100 nM	
Cn1cnc(Cn2c(=O)nc(Nc3cc4cn(CC5(N)CC5)nc4cc3Cl)n(Cc3cc(F)c(F)c(Cl)c3)c2=O)n1 [II-0558]		IC50 (SARS-CoV-2 3CL protease; 50% SARS-CoV-2 3CL protease inhibitory concentration, given as class symbols, read-out: IC50): < 100 nM
CC(C)Oc1ccc(/N=c2\[nH]c(=O)n(Cc3ccc[nH]c3=O)c(=O)n2Cc2ccc(Cl)cc2)cc1F [Compound I-0685, reference compound]		coronavirus replication inhibitory activity (SARS-CoV-2): did not show coronavirus replication inhibitory activity
CC(=O)N1CC(n2cc3cc(Nc4nc(=O)n(-c5cncc6ccccc56)c(=O)n4Cc4cc(F)c(F)c(F)c4)c(Cl)cc3n2)C1 [Compound I-0289]	< 100 nM	
Cn1cnc(Cn2c(=O)nc(Nc3cc4cn(CC(=O)O)nc4cc3Cl)n(Cc3cc(F)c(F)c(Cl)c3)c2=O)n1 [II-0321]	< 100 nM	
CNC(=O)Cn1cc2cc(Nc3nc(=O)n(Cc4ncn(C)n4)c(=O)n3Cc3cc(Cl)c(F)cc3F)c(Cl)cc2n1 [II-0137]	< 100 nM	
Cn1cnc(Cn2c(=O)cc(Nc3cc4cn(C)nc4cc3Cl)n(Cc3ccc(F)c(C#N)c3)c2=O)n1 [II-0379]	< 100 nM	
Cn1cnc(Cn2c(=O)nc(Nc3cc4cn(CC(F)F)nc4cc3Cl)n(Cc3ccc(F)c(C#N)c3)c2=O)n1 [II-0549]	< 100 nM	
CNC(=O)c1c[nH]c(=O)c(Cn2c(=O)nc(Nc3ccc(OC)cc3)n(Cc3cc(F)c(F)c(F)c3)c2=O)c1 [Compound I-0087]	< 100 nM	
